{
  "source": "paper PMC12032302",
  "about": "“A20 attenuates oxidized self-DNA-mediated inflammation in acute kidney injury” (Signal Transduction and Targeted Therapy, 2025)",
  "key": {"HA-NEK7 K140A": {"test_system": "HA-NEK7 K140A", "test": "biotin-P-II immunoprecipitation of HA-NEK7 K140A", "type": "binding, mouse", "conditions": "co-IP with biotin-labeled P-II, HEK293T lysates, overnight 4 °C, immunoblot; Fig. 7c", "method": "(§1) For biotin mediated immunoprecipitation, plasmids of HA-NEK7 (WT, K130A, L132R, K140A and Tri-MUT) were transfected into HEK293T cells for 2 days. Then, cells were lysed in MLB with inhibitor cocktail for 10 min at 4 °C. Cell lysates were collected and centrifuged at 12,000 rpm for 15 min at 4 °C and the supernatant was incubated with biotin conjunction peptide overnight at 4 °C. On the next day, streptavidin magnetic beads(Invitrogen, Lot#91221939) were added and incubated for 1 h. The immunocoprecipitated protein was then subjected to washing, heating, and western blot analysis.\n(§2) Mouse HA-NEK7, FlAG-A20, and NLRP3 cDNA were amplified by employing standard PCR techniques from a mouse cDNA library. Subsequently, diverse cDNAs were inserted into mammalian expression vectors pcDNA3.1(+), pRK5, or pCMV6 with 3×Flag or 3×HA tags. For transient transfections, Lipofectamine 3000 was utilized according to the manufacturer’s instructions."}, "[1]": {"test_system": "HA-NEK7 Tri-MUT (K130, L132 and K140)", "test": "biotin-P-II immunoprecipitation of HA-NEK7 Tri-MUT", "type": "binding, mouse", "conditions": "co-IP with biotin-labeled P-II, HEK293T lysates, overnight 4 °C, immunoblot; Fig. 7c", "method": "as §1, §2"}, "BMDMs": {"test_system": "BMDMs", "test": "ox-dsDNA-induced pyroptosis in BMDMs (GSDMD cleavage, IL-1β, IL-18, LDH release)", "type": "cell-based, mouse", "conditions": "ox-dsDNA90, 12 h pretreated P-II (0, 5, 10, 20 μM), n = 3, Supplementary Fig. 4f-i", "method": "Primary bone marrow-derived macrophages (BMDMs) were isolated from 6- to 8-week-old C57BL/6J male mice. The mice were sacrificed and soaked in 75% alcohol for 1–2 min. The femurs and tibias were removed and immersed in PBS containing 500 U/mL penicillin and […] streptomycin for 3 min. The marrow cavities were repeatedly rinsed with DMEM using a sterile 1 mL syringe. The cell suspension was collected and centrifuged at 300 × g for 10 min, and the supernatant was discarded. The cell pellet was resuspended in 5 mL red cell lysis buffer (Bio Sharp, Cat#BL503A) on ice for 5 min, followed by centrifugation, and the supernatant was removed. The cells were then resuspended in DMEM complete culture medium supplemented with 10% FBS and 30% L929 cell-conditioned medium as an induction factor.[51] Half of the medium was changed every other day for 5–7 days. The suspended cells were removed, and the adherent BMDMs were digested with trypsin and plated on a six-well plate at a density of 1 × 10^6 cells/well. […]\nTo measure the levels of CXCL10, IFN-β, IL-1β, and IL-18, mouse serum or cell culture medium was collected and measured by ELISA (NeoBioscience, China) according to the manufacturer’s instructions.\nTo measure the release of LDH, cell culture medium was collected and measured by CytoTox96@Non-Radio cytotoxicity Assay (Promega, REF#G1781) according to the manufacturer’s instructions."}, "NEK7 and NLRP3 complex": {"test_system": "NEK7 and NLRP3 complex", "test": "interaction of NEK7 and NLRP3 complex", "type": "binding", "method": "Cells were lysed in mild lysis buffer with a protease inhibitor cocktail (Cell Signaling Technology, Cat#5872S) on ice for 10 min to perform the coimmunoprecipitation (co-IP) assay. Samples were then centrifuged at 12,000 rpm at 4 °C for 10 min, and the supernatant was incubated with the corresponding primary antibody (anti-HA, 1:100, Cell Signaling Technology, Cat#3724S) overnight at 4 °C. On the next day, magnetic beads were added and incubated for 1 h. The immunocoprecipitated protein was washed three times by MLB and then heated with 4× Laemmli loading buffer at 100 °C for 10 min. Samples were then subjected to western blot analysis."}, "AKI mice": {"test_system": "AKI mice", "test": "survival of AKI mice", "type": "in vivo, mouse", "conditions": "Cis-treated mice; A20-derived peptide 15 mg/kg i.p., pretreated; n = 10 per group", "method": "Aristolochic acid I sodium salt was dissolved in PBS to 1 mg/mL and injected intraperitoneally at a dose of 10 mg/kg (body weight) every 24 h for 3 days; cisplatin was dissolved in PBS to 1.5 mg/mL for one-time intraperitoneal 25 mg/kg injection; LPS (Sigma, Cat#L2630) was dissolved in PBS to 2.5 mg/mL for one-time intraperitoneal 25 mg/kg injection; deoxyribonuclease I (DNase I, Sigma, Cat#SLBV1446) was dissolved in PBS to 1 mg/mL and injected intraperitoneally at a dose of 10 mg/kg at 4 h before cisplatin or AA I injection and every 24 h after injection. Disulfiram (MedChemExpress, CAS:97-77-8) was diluted in corn oil to 12.5 mg/mL and injected 50 mg/kg intraperitoneally every 24 h after cisplatin or AA I administration. Cu(II) (Sigma, Cat#344419) was dissolved in PBS to 30 µg/mL and administered intraperitoneally 6 h before disulfiram at a dose of 0.15 mg/kg; TNF-α (Peprotech, Cat#315-01 A) was dissolved in PBS to 10 µg/mL and injected at 100 µg/kg once through the caudal vein 24 h before cisplatin injection. Metformin (Sigma, Cat#D150959) was dissolved in PBS to 5 mg/mL and injected intraperitoneally at a dose of 50 mg/kg 24 h before cisplatin or AA I injection and every 24 h after injection. MCC950 (MedChem Express, CAS:256373-96-3) was dissolved in PBS to 5 mg/mL and injected intraperitoneally at a dose of 50 mg/kg 12 h before cisplatin or AA I injection and every 12 h after injection; berberine (APExBIO, Cat#N1368) was dissolved in PBS to 5 mg/mL and 5 mg/kg injected intraperitoneally at 36, 24 and 12 h before cisplatin; A20-derived-peptide was dissolved in ddH2O to 3 mg/mL and injected intraperitoneally at a dose of 15 mg/kg 1 h before cisplatin. To supervise the effects of various treatments on survival time and rate, the mice were observed, and survival curves were generated. To investigate the specific mechanisms, whole blood was retrieved from the orbit, serum was separated through centrifugation on the 4th day, and the mice were then sacrificed by cervical dislocation. Mice were randomly assigned in experiments, while there was no blinding during the animal experiments."}},
  "note": "Entries after “also recorded” stand apart in the source; their conditions may differ. Residues, ends and D or L forms follow the SMILES beside them.",
  "data": [
    {"smiles": "CSCC[C@H](NC(=O)[C@H](Cc1ccc(O)cc1)NC(=O)[C@H](CCC(N)=O)NC(=O)[C@H](CS)NC(=O)[C@H](C)NC(=O)[C@H](C)NC(=O)[C@H](Cc1c[nH]cn1)NC(=O)[C@H](CCSC)NC(=O)[C@H](CC(C)C)NC(=O)[C@H](CS)NC(=O)[C@H](CC(N)=O)NC(=O)CNC(=O)[C@H](CC(=O)O)NC(=O)CNC(=O)[C@H](CC(N)=O)NC(=O)[C@@H](NC(=O)[C@H](CCCCN)NC(=O)[C@H](CC(C)C)NC(=O)[C@H](C)NC(=O)[C@@H](NC(=O)[C@H](CC(C)C)NC(=O)[C@@H](N)CCCCN)C(C)C)[C@@H](C)O)C(=O)N[C@@H](Cc1c[nH]c2ccccc12)C(=O)NCC(=O)N[C@H](C(=O)N[C@@H](CCC(N)=O)C(=O)N[C@@H](CC(=O)O)C(=O)N[C@H](C(=O)N[C@@H](CC(=O)O)C(=O)O)[C@@H](C)O)C(C)C", "note": "[P-II] (H-KLVALKTNGDGNCLMHAACQYMWGVQDTD-OH; N-terminus and C-terminus assumed)", "values": [
      {"measurement": "binding of NEK7 and P-II, effect of K140A mutation", "setting": "HA-NEK7 K140A", "result": "significantly attenuate the binding of NEK7 and P-II; also recorded: Lys140 of NEK7 is crucial for this binding"},
      {"measurement": "binding of NEK7 and P-II, effect of simultaneous mutation of three residues", "setting": "[1]", "result": "significantly attenuate the binding of NEK7 and P-II"},
      {"measurement": "inhibition of ox-DNA-induced pyroptosis", "setting": "BMDMs", "result": "significantly alleviates ox-dsDNA-induced pyroptosis; also recorded: inhibiting ox-self-DNA-induced pyroptosis"},
      {"measurement": "interference with NEK7-NLRP3 interaction", "setting": "NEK7 and NLRP3 complex", "result": "interfere with the interaction between NEK7 and NLRP3 through Lys140 of NEK7; also recorded: interfering the binding of NEK7 to NLRP3 complex"},
      {"measurement": "survival", "setting": "AKI mice", "result": "improved the survival of mice"}
    ]}
  ]
}
